# Entries after “also recorded” stand apart in the source; their conditions may differ. Read-outs that look alike come from different tables or passages of the source.
# How the values were obtained:
# [1] = target: T1, D3 dopamine receptor (Homo sapiens (Human), UniProt P35462); assay: GIRK channel activation, whole cell voltage clamp, AtT-20 cells stably expressing D3; format: cell-based; details: D2/D3 antagonist eticlopride (100 nM)
# Description: The activation of the GIRK channels was measured electrophysiologically using whole cell voltage clamp recording (Kuzhikandathil et al., 2004, Mol. Cell. Neurosci. 26:144-155). […]. The adenylyl cyclase inhibition was determined using a commercially available ELISA assay (Westrich & Kuzhikandathil, 2007, Biochim. Biophys. Acta-Mol. Cell. Res. 1773:1747-1758).
# . In the initial screen, the ability of 300 nM lead compound to activate G-protein coupled inward rectifier potassium (GIRK) channels (FIG. 1) is measured using whole cell voltage clamp recording. The protocol has been previously used for performing whole cell voltage clamp and measuring agonist-induced GIRK response. […]. The EC50 values for each receptor subtype is determined by fitting the data points using the Hill equation.
# AtT-20 mouse pituitary cells were grown in Ham's F10 medium with 5% FBS, 10% heat-inactivated horse serum, 2 mM glutamine and 50 μg/ml gentamicin (Invitrogen, Carlsbad, Calif.). AtT-20 cells stabling expressing the human D2S, D2L, D3, and D4.2 and receptor were maintained in the above F10 culture media supplemented with 500 μg/ml G418 (Invitrogen). For electrophysiological characterization, cells were plated onto glass coverslips coated with 40 μg/ml poly L-lysine (Sigma-Aldrich). […]. Physiol. 115:697-706; Kuzhikandathil et al., 1998, Mol. Cell. Neurosci. 12:390-402; Kuzhikandathil & Bartoszyk, 2006, Neuropharm. 51:873-884; Westrich & Kuzhikandathil, 2007, Biochim. Biophys. Acta-MCR 1773:1747-1758; Kuzhikandathil et al., 2004, Mol. Cell. Neurosci. 26:144-155; Westrich et al., 2010, Biochem. Pharmacol. 79:897-907).
# Agonist-activated currents were measured by the whole-cell patch clamp technique in voltage clamp and current clamp mode as described previously (Kuzhikandathil & Oxford, 2000, J. Gen. Physiol. 115:697-706; Kuzhikandathil et al., 1998, Mol. Cell. Neurosci. 12:390-402; Kuzhikandathil & Bartoszyk, 2006, Neuropharm. 51:873-884; Westrich & Kuzhikandathil, 2007, Biochim. Biophys. Acta-MCR 1773:1747-1758; Kuzhikandathil et al., 2004, Mol. Cell. Neurosci. 26:144-155; Westrich et al., 2010, Biochem. Pharmacol. 79:897-907). Drug solutions were delivered to cells via a multi-barreled micropipette array. The current responses were normalized to the cell capacitance, to account for variation in cell size.
# To compare the functional effects of the new class of D3 receptor agonists, PBZI (Table 2) and ES609 (Table 3) were tested on AtT-20 cells stably expressing human D3, D2S, D2L or D4.2. […]. The EC50 values of PBZI and ES609 for inhibiting adenylyl cyclase and activating GIRK channels were in the range of 0.2 nM to 30 nM for D3 receptors. […]. […]
# Target sequence in this assay (P35462 other isoform, or with tags, fused parts or gaps): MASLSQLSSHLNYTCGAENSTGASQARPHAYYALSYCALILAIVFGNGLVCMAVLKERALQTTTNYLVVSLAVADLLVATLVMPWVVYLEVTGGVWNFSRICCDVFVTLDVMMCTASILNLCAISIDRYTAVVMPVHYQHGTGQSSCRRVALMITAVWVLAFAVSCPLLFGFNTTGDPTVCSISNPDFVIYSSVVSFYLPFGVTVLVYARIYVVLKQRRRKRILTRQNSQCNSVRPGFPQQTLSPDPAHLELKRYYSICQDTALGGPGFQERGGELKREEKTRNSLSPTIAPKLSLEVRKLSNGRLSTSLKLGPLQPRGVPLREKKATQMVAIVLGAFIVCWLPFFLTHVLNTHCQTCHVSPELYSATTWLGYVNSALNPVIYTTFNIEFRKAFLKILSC
# [2] = target: T1, D3 dopamine receptor; assay: D3 receptor tolerance and SRT: GIRK response to repeated agonist application in AtT-20 cells; format: cell-based; details: AtT-20 cells expressing human D3, 100-300 nM agonist, repeated ~60 s applications
# Description: To determine whether a compound abolishes the D3 receptor tolerance and SRT, the D3 receptor-activated GIRK response to two consecutive treatments of the lead compound is measured. […] Drug solutions were delivered to cells via a multi-barreled micropipette array. The current responses were normalized to the cell capacitance, to account for variation in cell size.
# To identify agonists that might modulate D3 receptor tolerance and SRT properties, ten distinct agonists were screened for their ability to induce tolerance and SRT, using the D3 receptor-GIRK channel signaling pathway as an assay.
# Target sequence in this assay (P35462 other isoform, or with tags, fused parts or gaps): as above
# [3] = target: D4.2; details: Scheideler et al., 1997; cited from earlier work
# [4] = target: D2S (Homo sapiens (Human), UniProt P14416); details: Scheideler et al., 1997; cited from earlier work
# [5] = system: Balb/c mice; assay: Locomotor activity (open field, TruScan) in Balb/c mice
# Description: Therefore, three different doses of the lead compound are administered and their effects on locomotor activity are determined. The dosage is determined based on the functional EC50 values and binding affinity of the lead compound from the cell-based assays described above. The compound is administered to Balb/c mice and locomotor activity is monitored using the TruScan Automated Behavioral Monitoring system (Coulborn Instruments).
# A total of 12 young adult, male Balb/c mice were obtained form Charles River, Inc. (Wilmington, Mass.), and housed in groups of four in standard cages. The animals were maintained on a 12 hour light/12 hour dark cycle and permitted ad lib access to food and water. Experiments were conducted during the animal's light phase. […] For PD128907, separate groups of Balb/c mice received subcutaneous injections of saline (n=4) or 0.05 or 0.4 mg/kg PD128907 (n=4, for each). Locomotion (‘distance traveled’) scores of drug-injected animals were collapsed across 10-min intervals and for comparison purposes were normalized to saline injected animals (FIG. 12A). The experiment was conducted on three separate occasions.
# [6] = target: T1, D3 dopamine receptor; details: cited from earlier work
# Target sequence in this assay (P35462 whole entry): as the sequence (P35462 other isoform, or with tags, fused parts or gaps) above, with S9G counted along it
# [7] = system: intrastriatal 6-OHDA lesioned rats; assay: Levodopa-induced dyskinesia (AIMs score) in intrastriatal 6-OHDA lesioned rats; format: in vivo, rat; details: PD128907 0.1 mg/kg sc; PBZI 17 mg/kg sc; hydrochloride
# Description: In particular, rats in which unilateral intrastriatal lesion is induced by injection of 6-OHDA (7 μg) at three different sites in the ventrolateral striatum are used. The coordinates for the three injection sites are, in mm: injection site 1: AP: +1.0; ML: −3.0; DV: −5.0; injection site 2: AP: −0.1; ML: −3.7; DV: −5.0; injection site 3: AP: −1.2; ML: −4.5; DV: −5.0. Anterior-posterior (AP) and mediolateral (ML) coordinates are from bregma. The dorso-ventral (DV) coordinates are from dura. The toothbar location is 0.
# Seven and half weeks after the lesion, chronic levodopa treatment (6 mg/kg, single dose per day given with 15 mg/kg benserazide) is initiated. Stepping test and AIMs scores are determined on day 1, 8, 10, 17 and 24 after the initiation of chronic levodopa treatment. […] AIMs are scored using a rating scale based on frequency and severity of the dyskinetic symptoms. It should be noted that the rank order of the various AIMs components in terms of frequency and severity in the rat model is: limb>orolingual=axial>>locomotor. This lesion model has been used to test the effect of PBZI on LID (Example 3).
# FIG. 13A illustrates the effect of control, PD128907 (a tolerance inducing D2/D3 agonist) and PBZI (a non tolerance inducing D3/D3 agonist) on the total AIMs score (includes locomotor, axial, limb and orolingual) over time of a day 17 (chronic L-DOPA phase) lesioned animal.
# [8] = system: intrastriatal 6-OHDA lesioned rats; assay: Forelimb stepping test in intrastriatal 6-OHDA lesioned rats; details: levodopa 2, 4 and 6 mg/kg with benserazide
# [9] = target: T2, D4.2 dopamine receptor (Homo sapiens (Human), UniProt P21917, DEL265-296); details: Kuzhikandathil & Bartoszyk, 2006; cited from earlier work
# [10] = target: T3, D2L dopamine receptor (Homo sapiens (Human), UniProt P14416); details: Kuzhikandathil & Bartoszyk, 2006; cited from earlier work
# [11] = target: T3, D2L dopamine receptor; details: Kuzhikandathil & Bartoszyk, 2006; cited from earlier work; remark: listed apart in the source
# [12] = target: T2, D4.2 dopamine receptor; details: Kuzhikandathil & Bartoszyk, 2006; cited from earlier work; remark: listed apart in the source
# [13] = target: D2S dopamine receptor (Homo sapiens (Human), UniProt P14416); assay: Tolerance and SRT at D2S dopamine receptors; format: cell-based
# Chain of D2S dopamine receptor (P14416 other isoform, or with tags, fused parts or gaps): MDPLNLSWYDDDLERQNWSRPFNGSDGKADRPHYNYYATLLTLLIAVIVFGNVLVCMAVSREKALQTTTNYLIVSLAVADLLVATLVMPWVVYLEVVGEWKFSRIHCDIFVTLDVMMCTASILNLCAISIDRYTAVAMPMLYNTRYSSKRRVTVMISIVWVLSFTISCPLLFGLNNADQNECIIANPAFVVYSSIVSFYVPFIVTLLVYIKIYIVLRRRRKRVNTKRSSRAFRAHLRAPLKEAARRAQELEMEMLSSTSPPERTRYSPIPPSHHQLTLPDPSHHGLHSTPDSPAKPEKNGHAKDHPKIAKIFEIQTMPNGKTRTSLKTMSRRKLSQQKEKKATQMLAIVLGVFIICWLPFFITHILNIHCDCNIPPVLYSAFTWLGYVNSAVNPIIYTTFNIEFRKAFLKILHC
# T2 sequence (P21917 other isoform, or with tags, fused parts or gaps del 265-296): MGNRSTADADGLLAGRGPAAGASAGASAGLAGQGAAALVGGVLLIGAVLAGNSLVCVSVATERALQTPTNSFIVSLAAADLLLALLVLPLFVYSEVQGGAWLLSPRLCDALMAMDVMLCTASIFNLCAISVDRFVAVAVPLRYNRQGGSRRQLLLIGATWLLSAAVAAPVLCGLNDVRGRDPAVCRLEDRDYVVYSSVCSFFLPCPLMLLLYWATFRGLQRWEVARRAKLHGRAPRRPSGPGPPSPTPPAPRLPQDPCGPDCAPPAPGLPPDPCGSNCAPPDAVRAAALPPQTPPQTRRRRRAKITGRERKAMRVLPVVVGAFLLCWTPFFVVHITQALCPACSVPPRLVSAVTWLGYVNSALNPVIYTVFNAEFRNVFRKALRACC
# T3 sequence (P14416 whole entry): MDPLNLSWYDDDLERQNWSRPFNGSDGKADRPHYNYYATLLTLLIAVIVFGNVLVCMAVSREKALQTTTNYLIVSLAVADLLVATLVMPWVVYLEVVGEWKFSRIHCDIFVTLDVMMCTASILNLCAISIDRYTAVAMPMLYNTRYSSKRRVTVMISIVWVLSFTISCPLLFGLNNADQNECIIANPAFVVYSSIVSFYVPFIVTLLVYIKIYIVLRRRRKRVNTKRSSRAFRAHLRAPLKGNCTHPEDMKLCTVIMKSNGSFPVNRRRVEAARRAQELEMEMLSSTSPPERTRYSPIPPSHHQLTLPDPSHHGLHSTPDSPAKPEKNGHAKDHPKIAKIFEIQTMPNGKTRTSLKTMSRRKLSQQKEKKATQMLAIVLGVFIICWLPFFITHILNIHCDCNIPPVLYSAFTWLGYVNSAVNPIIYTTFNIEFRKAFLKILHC
# Chain of D2S (P14416 other isoform, or with tags, fused parts or gaps): as the sequence (P14416 other isoform, or with tags, fused parts or gaps) above
smiles,measurement,setting,value
"C#CC1=CCC(N(CCC)CCC)CC1 (stereo not drawn) [FAUC73, (4-ethynylcyclohex-3-enyl) dipropylamine]",specificity of agonist effect (eticlopride pretreatment / parental cells),[1],specific for D3 receptors
same,D3 receptor tolerance and SRT properties (agonist-induced GIRK response),[2],abolished the tolerance property; also recorded: abolished both tolerance and SRT properties; also recorded: do not show D3 receptor tolerance and SRT
same,D3 receptor tolerance and SRT properties (agonist-induced GIRK response),[2]; listed as FAUC 73,completely abolished the receptors' tolerance and SRT properties
"CCCN1CCO[C@@H]2c3cc(O)ccc3OC[C@H]21.Cl [PD128907, (4aR,10bR)-3,4-a,4,10b-tetrahydro-4-propyl-2H,5H-[1]benzopyrano-[4,3-b]-1,4-oxazin-9-ol hydrochloride]",Ki,[3],114 nM
same,Ki,[4],202 nM
same,duration of hypoactivity post-injection,"[5]; PBZI 10 mg/kg sc, PD128907 0.4 mg/kg sc",40 min
same,duration of hypoactivity post-injection,[5]; PD128907 0.05 mg/kg sc,20 min
same,time by which locomotor activity returns to control saline levels,"[5]; post-injection, PBZI 10 mg/kg sc, PD128907 0.4 mg/kg sc",≤ 120 min
same,dose at which biphasic locomotor effect was observed,[5]; sc,≥ 0.05 mg/kg
same,locomotor response,"[5]; sc, PBZI 10 mg/kg, PD128907 0.05-0.4 mg/kg, normalized to saline, hydrochloride",induces both hypoactivity and hyperactivity; also recorded: biphasic locomotor response; also recorded: biphasic effect; also recorded: an initial hypoactivity (horizontal arrows) that is followed by hyperactivity
same,Ki,"[6]; D3, Scheideler et al., 1997, read-out: Ki",0.4 nM
same,Ki,"[6]; source not stated, read-out: D3 dopamine receptor binding affinity Ki",2.3 nM
same,"dyskinesia induced by the compound itself, before levodopa administration",[7],in of itself induced dyskinesia; also recorded: increased AIMs score even before the levodopa was administered
same,D3 receptor tolerance and SRT properties (agonist-induced GIRK response),[2]; hydrochloride,elicited tolerance and SRT; also recorded: induced enhanced tolerance; also recorded: induces severe tolerance and SRT
same,D3 receptor tolerance and SRT properties (agonist-induced GIRK response),"[2]; listed as PD 128907, hydrochloride",tolerance is elicited
"N[C@@H](Cc1ccc(O)c(O)c1)C(=O)O [levodopa, L-3,4-dihydroxyphenylalanine]",forelimb bradykinesia (forelimb stepping test),[8],dose dependent improvement in forelimb bradykinesia
"Fc1ccc(-c2cncc(CNC[C@H]3CCc4ccccc4O3)c2)cc1 [sarizotan, 1-[(2R)-3,4-dihydro-2H-chromen-2-yl]-N-([5-(4-fluorophenyl)pyridin-3-yl]methyl)methanamine]",adenylyl cyclase pathway: agonist type,[9],full agonist
same,GIRK channel signaling pathway: agonist type,[10],partial agonist
same,adenylyl cyclase pathway: agonist type,[11],full agonist
same,GIRK channel signaling pathway: agonist type,[12],partial agonist
same,tolerance and SRT properties at D2S,[13],induces tolerance and slow response termination (SRT) properties

# Source: patent publication US9289400B2, “D3 dopamine receptor agonists to treat dyskinesia in parkinson's disease” (priority 2010, dated 2016)
